Source: US10610522B2, “Methods for retreating irritable bowel syndrome (IBS)” (Salix Pharmaceuticals, Inc., priority 2014, dated 2020)

Experiments:
[1] = system: hepatic encephalopathy (HE), commonly-occurring infections; assay: Infection rates in cirrhotic patients with HE on long-term rifaximin 550 mg BID (RCT and open-label maintenance); format: in vivo; settings: for Any infection: rate = number of subjects/PEY; for C. difficile infection / Cellulitis / Peritonitis / Pneumonia / Urinary tract/kidney infection: human, in vivo
Description: Cirrhosis patients can have an increased risk of infections and subsequent hospitalizations, leading to increased mortality. […] A description of the OLM and RCT can be found in WO 2011/005388, “METHODS OF TREATING HEPATIC ENCEPHALOPATHY,” which is incorporated herein by reference in its entirety. In the analysis below, the effect of long term RFX treatment on infection rates and antibiotic use was examined.
Patients with cirrhosis and ≥2 overt HE episodes within 12 months were enrolled in the RCT (RFX=140; placebo [PBO]=159); 170 new patients, in addition to 70 RFX and 82 PBO patients who rolled over from the RCT were enrolled in OLM. The “All RFX group” (n=392) consisted of RFX-treated patients in both studies. Infection rates per person exposure years (PEY) were compared across RCT and All RFX groups, and antibiotic use over time was examined.
In the 6 month RCT, RFX exposure was 50 PEY vs 46 PEY in the PBO group. Long term RFX exposure was for median=427 (2-1427) days, or 510 PEY. […] Overall, use of antibiotics (oral and intravenous) remained the same or declined with time.

[2] = system: C. difficile infection (CDI); assay: Double-blind non-inferiority trial rifaximin 400 mg TID vs vancomycin 125 mg QID, 10 days, C. difficile infection; format: in vivo, human
Description: Criteria for entry into the trial were: • Age >=18 years old; • Had acute diarrhea at screening defined as >=3 unformed stools in the last 24 hours and at least one sign of enteric infection (fever, nausea, lose of appetite, vomiting, severe abdominal pain/discomfort); and • a positive C. diff stool toxin assay Endpoint:
The primary efficacy endpoint of the study was defined as the proportion of subjects achieving clinical success. Specifically, clinical success was defined as the absence of severe abdominal pain at Test of Cure (TOC), absence of fever (<38° C.) at TOC, and <3 unformed stools for two consecutive days at TOC.
Clinical success was defined as the: Absence of severe abdominal pain at TOC, absence of fever (<38° C.) at TOC, and <3 unformed stools for two consecutive days at TOC. Test of cure defined as Day 14+/−1 day.
Recurrence was defined to be a diarrhea and a positive C. diff stool toxin assay that occurred after initial clinical success.
Global cure of diarrhea was defined as subjects who were cured of diarrhea at TOC without recurrence at follow up.
Subjects who completed the study without achieving clinical success were censored at Day 14

cytochrome P450 2C19 = cytochrome P450 2C19 (Homo sapiens, UniProt P33261); assay: In vitro cytochrome P450 inhibition; format: biochemical; settings: 2 to 200 ng/mL
Chain of cytochrome P450 2C19 (P33261 whole entry): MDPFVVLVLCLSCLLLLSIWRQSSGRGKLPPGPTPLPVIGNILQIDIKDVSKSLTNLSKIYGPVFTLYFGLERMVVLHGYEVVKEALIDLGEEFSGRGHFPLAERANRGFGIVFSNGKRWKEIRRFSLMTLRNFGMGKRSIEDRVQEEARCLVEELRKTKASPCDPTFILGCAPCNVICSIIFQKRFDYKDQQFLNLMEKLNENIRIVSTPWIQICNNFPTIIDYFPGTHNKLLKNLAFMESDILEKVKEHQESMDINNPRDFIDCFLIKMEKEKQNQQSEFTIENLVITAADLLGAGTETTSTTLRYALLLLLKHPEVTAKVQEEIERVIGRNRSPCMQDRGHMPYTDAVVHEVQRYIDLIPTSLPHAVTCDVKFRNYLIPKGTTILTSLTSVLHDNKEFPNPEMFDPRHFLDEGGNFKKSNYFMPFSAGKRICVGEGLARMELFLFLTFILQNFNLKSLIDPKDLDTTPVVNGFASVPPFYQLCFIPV

[3] = Rifaximin N = 117, Vancomycin N = 115
[4] = Rifaximin vs Vancomycin, at TOC
[5] = Rifaximin vs Vancomycin, treatment period
[6] = adjusting for concomitant medication usage, Rifaximin N = 109, Vancomycin N = 112
[7] = adjusting for concomitant medication usage, Rifaximin N = 117, Vancomycin N = 115
[8] = adjusting for concomitant medication usage, Rifaximin vs Vancomycin
[9] = after initial clinical success, Rifaximin N = 67, Vancomycin N = 73
[10] = all subjects, Rifaximin N = 117, Vancomycin N = 115
[11] = at TOC, Rifaximin N = 108, Vancomycin N = 111
[12] = at TOC, Rifaximin N = 117, Vancomycin N = 115
[13] = cured at TOC without recurrence at follow up, Rifaximin N = 117, Vancomycin N = 115
[14] = subgroup Age <65, at TOC, Rifaximin N = 69, Vancomycin N = 62
[15] = subgroup Age >=65, at TOC, Rifaximin N = 39, Vancomycin N = 49
[16] = subgroup Female, at TOC, Rifaximin N = 68, Vancomycin N = 64
[17] = subgroup Male, at TOC, Rifaximin N = 40, Vancomycin N = 47

CO[C@H]1/C=C/O[C@@]2(C)Oc3c(C)c(O)c4c(O)c(c5c(nc6cc(C)ccn65)c4c3C2=O)NC(=O)/C(C)=C\C=C\[C@H](C)[C@H](O)[C@@H](C)[C@@H](O)[C@@H](C)[C@H](OC(C)=O)[C@@H]1C [Rifaximin, (2S,16Z,18E,20S,21S,22R,23R,24R,25S,26S,27S,28E)-5,6,21,23,25 Pentahydroxy-27-methoxy-2,4,11,16,20,22,24,26-octamethyl-2,7-(epoxypentadeca-(1,11,13)trienimino) benzofuro (4,5-e) pyrido(1,2-a) benzimidazole-1,15(2H)-dione,25-acetate]
Any infection ([1]; All RFX patients (n = 392), PEY = 510): 214 (0.072) N (rate*) | Any infection ([1]; RCT RFX 550 mg BID (n = 140), PEY = 50): 46 (0.112) N (rate*) | C. difficile infection [1]: 6 (0.012) N (rate*) | Cellulitis [1]: 34 (0.071) N (rate*) | Peritonitis [1]: 22 (0.044) N (rate*) | Pneumonia [1]: 42 (0.084) N (rate*) | Urinary tract/kidney infection [1]: 83 (0.193) N (rate*) | C. difficile infection ([1]; 6 months): 2 (0.040) N (rate*) | Cellulitis ([1]; 6 months): 3 (0.006) N (rate*) | Peritonitis ([1]; 6 months): 3 (0.060) N (rate*) | Pneumonia ([1]; 6 months): 4 (0.080) N (rate*) | Urinary tract/kidney infection ([1]; 6 months): 9 (0.187) N (rate*) | Continuing Illness No: % of subjects [2, 3]: 77% | Continuing Illness No: number of subjects [2, 3]: 90 | Continuing Illness Yes: % of subjects [2, 3]: 23% | Continuing Illness Yes: number of subjects [2, 3]: 27 | Global Cure of Diarrhea No: % of subjects [2, 3]: 29% | Global Cure of Diarrhea No: number of subjects [2, 3]: 34 | Recurrence Rate per Person-Year Exposure [2, 3]: 0.613 | Continuing Illness: Treatment Difference ([2]; Rifaximin vs Vancomycin): −9.2% | Global Cure of Diarrhea: Treatment Difference ([2]; Rifaximin vs Vancomycin): −3.0% | Recurrence of CDI: Treatment Difference ([2]; Rifaximin vs Vancomycin, after initial clinical success): 4.7% | Clinical Success: Treatment Difference [2, 4]: −6.2% | Diarrhea: Treatment Difference [2, 4]: −1.5% | Fever: Treatment Difference [2, 4]: −7.5% | Severe Abdominal Pain/Discomfort: Treatment Difference [2, 4]: −11.5% | Adjusted mean number of unformed stools-ANOVA: Treatment Difference (95% CI) [2, 5]: 0.46 (−0.08, 1.00) | Overall treatment difference in number of unformed stools-Mixed Model: Treatment Difference (95% CI) [2, 5]: 0.32 (−0.08, 0.72) | Diarrhea No: % of subjects [2, 6]: 65% | Diarrhea No: number of subjects [2, 6]: 71 | Diarrhea Yes: % of subjects [2, 6]: 35% | Diarrhea Yes: number of subjects [2, 6]: 38 | Clinical Success No: % of subjects [2, 7]: 50% | Clinical Success No: number of subjects [2, 7]: 59 | Clinical Success Yes: % of subjects [2, 7]: 50% | Clinical Success Yes: number of subjects [2, 7]: 58 | Clinical Success: Treatment Difference [2, 8]: −10.4% | Diarrhea: Treatment Difference [2, 8]: −8.1% | No Recurrence of CDI: % of subjects [2, 9]: 91% | No Recurrence of CDI: number of subjects [2, 9]: 61 | Recurrence of CDI: % of subjects [2, 9]: 9% | Recurrence of CDI: number of subjects [2, 9]: 6 | Recurrence No: % of subjects [2, 10]: 95% | Recurrence No: number of subjects [2, 10]: 111 | Recurrence Yes: % of subjects [2, 10]: 5% | Recurrence Yes: number of subjects [2, 10]: 6 | Diarrhea No: % of subjects [2, 11]: 80% | Diarrhea No: number of subjects [2, 11]: 86 | Diarrhea Yes: % of subjects [2, 11]: 20% | Diarrhea Yes: number of subjects [2, 11]: 22 | Fever No: % of subjects [2, 11]: 91% | Fever No: number of subjects [2, 11]: 98 | Fever Yes: % of subjects [2, 11]: 9% | Fever Yes: number of subjects [2, 11]: 10 | Severe Abdominal Pain/Discomfort No: % of subjects [2, 11]: 74% | Severe Abdominal Pain/Discomfort No: number of subjects [2, 11]: 80 | Severe Abdominal Pain/Discomfort Yes: % of subjects [2, 11]: 26% | Severe Abdominal Pain/Discomfort Yes: number of subjects [2, 11]: 28 | Clinical Success No: % of subjects [2, 12]: 43% | Clinical Success No: number of subjects [2, 12]: 50 | Clinical Success Yes: % of subjects [2, 12]: 57% | Clinical Success Yes: number of subjects [2, 12]: 67 | Global Cure of Diarrhea Yes: % of subjects [2, 13]: 71% | Global Cure of Diarrhea Yes: number of subjects [2, 13]: 83 | Adjusted mean number of unformed stools-ANOVA ([2]; during the treatment period, Rifaximin N = 117, Vancomycin N = 115): 2.36 | Diarrhea: % of subjects [2, 14]: 23% | Diarrhea: number of subjects [2, 14]: 16 | No Diarrhea: % of subjects [2, 14]: 77% | No Diarrhea: number of subjects [2, 14]: 53 | Diarrhea: Treatment Difference ([2]; subgroup Age <65, at TOC, Rifaximin vs Vancomycin): −3.8% | Diarrhea: % of subjects [2, 15]: 15% | Diarrhea: number of subjects [2, 15]: 6 | No Diarrhea: % of subjects [2, 15]: 85% | No Diarrhea: number of subjects [2, 15]: 33 | Diarrhea: Treatment Difference ([2]; subgroup Age >=65, at TOC, Rifaximin vs Vancomycin): 3.0% | Diarrhea: % of subjects [2, 16]: 21% | Diarrhea: number of subjects [2, 16]: 14 | No Diarrhea: % of subjects [2, 16]: 79% | No Diarrhea: number of subjects [2, 16]: 54 | Diarrhea: Treatment Difference ([2]; subgroup Female, at TOC, Rifaximin vs Vancomycin): −3.4% | Diarrhea: % of subjects [2, 17]: 20% | Diarrhea: number of subjects [2, 17]: 8 | No Diarrhea: % of subjects [2, 17]: 80% | No Diarrhea: number of subjects [2, 17]: 32 | Diarrhea: Treatment Difference ([2]; subgroup Male, at TOC, Rifaximin vs Vancomycin): 1.3% | Inhibition of cytochrome P450 2C19 (cytochrome P450 2C19): does not inhibit
